# Tests used:
# [1] = molecular target: T1, c-Met (baculovirus expressed human c-Met kinase domain P948-S1343) (Homo sapiens, UniProt P08581); test: c-Met Luciferase-Coupled Chemiluminescent Kinase assay (LCCA); type: biochemical;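 note: kinase activity read as percent ATP left after reaction, by luciferase-luciferin chemiluminescence, with 1 µM ATP and 1 µM poly-EY substrate, 2 h at ambient temperature, 10-point dose-response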
# T1 construct: human c-Met kinase domain P948-S1343; host or cells: baculovirus expression
# T1 sequence (P08581 1011-1343 limits assumed): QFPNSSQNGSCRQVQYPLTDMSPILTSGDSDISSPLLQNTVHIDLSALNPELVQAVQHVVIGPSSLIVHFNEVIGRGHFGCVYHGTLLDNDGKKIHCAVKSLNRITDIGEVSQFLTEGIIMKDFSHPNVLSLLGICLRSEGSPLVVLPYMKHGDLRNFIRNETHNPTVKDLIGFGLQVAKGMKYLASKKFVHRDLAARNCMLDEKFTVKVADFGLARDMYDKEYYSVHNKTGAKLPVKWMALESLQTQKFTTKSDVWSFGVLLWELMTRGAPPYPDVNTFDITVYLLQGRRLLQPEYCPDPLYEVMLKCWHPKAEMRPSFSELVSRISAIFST
# [2] = molecular target: T2, KDR (baculovirus expressed human KDR kinase domain D807-V1356) (Homo sapiens, UniProt P35968); test: biochemical;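 note: Luciferase-coupled chemiluminescent kinase assay, activity read as percent ATP left after 4 h reaction at ambient temperature, ATP near KM, 10-point dose-response in 384-well plates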
# T2 construct: human KDR kinase domain D807-V1356; host or cells: baculovirus expression
# T2 sequence (P35968 807-1356): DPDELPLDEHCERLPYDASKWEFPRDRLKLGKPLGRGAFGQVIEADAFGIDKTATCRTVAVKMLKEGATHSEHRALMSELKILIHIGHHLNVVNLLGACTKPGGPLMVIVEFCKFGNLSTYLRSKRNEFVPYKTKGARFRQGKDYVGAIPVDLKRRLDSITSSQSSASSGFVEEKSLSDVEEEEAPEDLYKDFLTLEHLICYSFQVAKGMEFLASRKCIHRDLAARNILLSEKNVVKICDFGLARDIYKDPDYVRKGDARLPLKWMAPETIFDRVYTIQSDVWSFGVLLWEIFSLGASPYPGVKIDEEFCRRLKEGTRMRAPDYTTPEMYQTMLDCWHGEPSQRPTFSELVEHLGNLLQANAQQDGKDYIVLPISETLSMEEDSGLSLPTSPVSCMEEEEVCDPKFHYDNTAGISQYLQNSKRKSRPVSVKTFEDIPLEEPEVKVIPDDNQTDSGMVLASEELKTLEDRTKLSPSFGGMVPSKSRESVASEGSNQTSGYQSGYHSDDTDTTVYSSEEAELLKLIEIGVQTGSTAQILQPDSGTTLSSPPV
# [3] = molecular target: T3, Flt-4 (baculovirus expressed human Flt-4 kinase domain D725-R1298) (Homo sapiens, UniProt P35916); test: flt-4 Alphascreen Tyrosine Kinase assay; type: biochemical; conditions: read-out: flt4 IC50;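 note: AlphaScreen chemiluminescence read-out of biotinylated poly(Glu,Tyr) 4:1 phosphorylation via streptavidin donor and PY100 anti-phosphotyrosine acceptor beads, ATP near KM, 1 hr kinase reaction, 10-point dose-response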
# T3 construct: human Flt-4 kinase domain D725-R1298; host or cells: baculovirus expression
# T3 sequence (P35916 725-1298 isoform P35916-1): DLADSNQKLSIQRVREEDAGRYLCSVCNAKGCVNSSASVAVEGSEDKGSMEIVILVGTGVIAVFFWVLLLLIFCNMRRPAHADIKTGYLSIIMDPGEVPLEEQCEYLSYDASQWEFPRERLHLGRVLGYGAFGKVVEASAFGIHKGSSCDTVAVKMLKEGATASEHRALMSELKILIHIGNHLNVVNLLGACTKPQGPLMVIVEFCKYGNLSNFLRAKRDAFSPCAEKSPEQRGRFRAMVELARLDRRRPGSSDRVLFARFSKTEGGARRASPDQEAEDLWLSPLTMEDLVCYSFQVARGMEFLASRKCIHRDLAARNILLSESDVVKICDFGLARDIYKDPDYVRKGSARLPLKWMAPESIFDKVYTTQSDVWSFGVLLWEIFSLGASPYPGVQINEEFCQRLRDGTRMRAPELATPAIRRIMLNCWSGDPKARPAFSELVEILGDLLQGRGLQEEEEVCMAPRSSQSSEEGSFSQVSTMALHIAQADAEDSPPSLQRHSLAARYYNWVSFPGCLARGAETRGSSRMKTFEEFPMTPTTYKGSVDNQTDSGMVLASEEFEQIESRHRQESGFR
# [4] = molecular target: T4, Flt-3 (baculovirus expressed human Flt-3 kinase domain R571-S993) (Homo sapiens, UniProt P36888); test: biochemical; conditions: read-out: flt3 IC50;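 note: Luciferase-coupled chemiluminescent kinase assay, activity read as percent ATP left after a 3 h reaction at room temperature, ATP near KM, 10-point dose-response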
# T4 construct: human Flt-3 kinase domain R571-S993; host or cells: baculovirus expression
# T4 sequence (P36888 571-993): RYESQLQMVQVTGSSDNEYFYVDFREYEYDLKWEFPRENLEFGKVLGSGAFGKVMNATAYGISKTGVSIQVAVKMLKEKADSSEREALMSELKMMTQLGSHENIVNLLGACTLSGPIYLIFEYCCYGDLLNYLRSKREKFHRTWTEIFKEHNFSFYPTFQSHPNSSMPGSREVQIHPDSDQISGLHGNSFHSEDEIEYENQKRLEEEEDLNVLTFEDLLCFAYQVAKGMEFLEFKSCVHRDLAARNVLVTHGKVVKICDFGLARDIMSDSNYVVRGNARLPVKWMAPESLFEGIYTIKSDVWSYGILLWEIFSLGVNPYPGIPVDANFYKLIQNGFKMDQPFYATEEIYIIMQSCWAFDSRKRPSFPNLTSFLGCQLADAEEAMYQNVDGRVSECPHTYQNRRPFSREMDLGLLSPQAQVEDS
# c-Kit kinase = c-Kit kinase (Homo sapiens, UniProt P10721); test: c-Kit AlphaScreen kinase assay; type: biochemical;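 note: c-Kit kinase phosphorylating biotinylated poly(Glu,Tyr), ATP near its KM, 1 h reaction at ambient temperature, AlphaScreen chemiluminescence with streptavidin donor and anti-phosphotyrosine acceptor beads, 10-point inhibitor titration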
# Chain of c-Kit kinase (P10721 26-976): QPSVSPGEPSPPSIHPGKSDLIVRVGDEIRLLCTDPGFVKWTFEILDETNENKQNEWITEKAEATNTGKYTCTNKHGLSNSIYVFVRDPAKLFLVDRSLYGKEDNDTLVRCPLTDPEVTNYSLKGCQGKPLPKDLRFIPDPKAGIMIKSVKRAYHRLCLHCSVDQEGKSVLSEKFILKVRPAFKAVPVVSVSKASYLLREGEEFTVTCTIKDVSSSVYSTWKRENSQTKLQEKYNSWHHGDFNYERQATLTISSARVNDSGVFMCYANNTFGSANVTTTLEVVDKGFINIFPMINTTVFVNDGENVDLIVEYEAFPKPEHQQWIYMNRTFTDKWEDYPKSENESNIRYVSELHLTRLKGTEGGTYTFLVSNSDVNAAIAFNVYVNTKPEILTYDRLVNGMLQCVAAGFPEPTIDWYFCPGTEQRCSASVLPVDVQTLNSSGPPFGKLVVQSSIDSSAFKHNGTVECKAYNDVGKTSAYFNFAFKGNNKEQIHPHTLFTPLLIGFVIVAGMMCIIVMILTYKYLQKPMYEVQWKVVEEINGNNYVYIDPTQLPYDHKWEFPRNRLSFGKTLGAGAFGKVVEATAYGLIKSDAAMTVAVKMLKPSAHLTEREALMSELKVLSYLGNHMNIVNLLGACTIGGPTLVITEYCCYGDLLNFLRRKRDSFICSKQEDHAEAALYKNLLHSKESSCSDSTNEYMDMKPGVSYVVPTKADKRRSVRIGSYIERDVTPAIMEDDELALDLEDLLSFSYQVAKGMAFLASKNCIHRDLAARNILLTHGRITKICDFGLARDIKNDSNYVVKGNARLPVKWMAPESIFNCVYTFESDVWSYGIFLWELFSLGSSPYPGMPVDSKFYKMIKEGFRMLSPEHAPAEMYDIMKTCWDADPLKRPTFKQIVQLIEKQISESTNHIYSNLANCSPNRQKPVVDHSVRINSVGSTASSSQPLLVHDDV
SMILES,IC50 [1] [µM],IC50 [2] [µM],IC50 [3] [µM],IC50 [4] [µM],IC50 (c-Kit kinase) [µM]
"COc1cc2c(Oc3cc(C)c(NC(=O)C4(C(=O)Nc5ccc(F)cc5)CC4)cc3F)ccnc2cc1OCCCN1CCOCC1 [Example 326, N-[5-fluoro-2-methyl-4-({6-(methyloxy)-7-[(3-morpholin-4-ylpropyl)oxy]quinolin-4-yl}oxy)phenyl]-N′-(4-fluorophenyl)cyclopropane-1,1-dicarboxamide]",< 0.05,< 0.05,0.05 to 0.5,0.05 to 0.5,0.05 to 0.5
"COc1cc2nccc(Oc3c(F)cc(NC(=O)C4(C(=O)Nc5ccc(F)cc5)CC4)c(F)c3F)c2cc1OC [Example 327, N-(4-{[6,7-bis(methyloxy)quinolin-4-yl]oxy}-2,3,5-trifluorophenyl)-N′-(4-fluorophenyl)cyclopropane-1,1-dicarboxamide]",< 0.05,< 0.05,0.05 to 0.5,0.05 to 0.5,0.05 to 0.5
"COc1cc2nccc(Oc3cc(C)c(NC(=O)C4(C(=O)Nc5ccc(F)cc5)CC4)cc3F)c2cc1OC [Example 328, N-(4-{[6,7-bis(methyloxy)quinolin-4-yl]oxy}-5-fluoro-2-methylphenyl)-N′-(4-fluorophenyl)cyclopropane-1,1-dicarboxamide]",< 0.05,0.05 to 0.5,0.5 to 5,0.5 to 5,0.05 to 0.5
"COc1cc2nccc(Oc3cc(Cl)c(NC(=O)C4(C(=O)Nc5ccc(F)cc5)CC4)cc3C)c2cc1OC [Example 329, N-(4-{[6,7-bis(methyloxy)quinolin-4-yl]oxy}-2-chloro-5-methylphenyl)-N′-(4-fluorophenyl)cyclopropane-1,1-dicarboxamide]",< 0.05,0.05 to 0.5,0.05 to 0.5,0.5 to 5,0.05 to 0.5
"COc1cc2nccc(Oc3ccc(NC(=O)C4(C(=O)Nc5ccc(F)cc5)CC4)cc3F)c2cc1O [Example 330, N-(3-fluoro-4-{[6-hydroxy-7-(methyloxy)quinolin-4-yl]oxy}phenyl)-N′-(4-fluorophenyl)cyclopropane-1,1-dicarboxamide]",< 0.05,< 0.05,< 0.05,< 0.05,< 0.05
"COc1cc2c(Oc3ccc(NC(=O)C4(C(=O)Nc5ccc(F)cc5)CC4)c(C)c3)ccnc2cc1OCCCN1CCOCC1 [Example 331, N-(4-fluorophenyl)-N′-[2-methyl-4-({6-(methyloxy)-7-[(3-morpholin-4-ylpropyl)oxy]quinolin-4-yl}oxy)phenyl]cyclopropane-1,1-dicarboxamide]",< 0.05,< 0.05,< 0.05,0.05 to 0.5,< 0.05
"COc1cc2c(Oc3ccc(NC(=O)C4(C(=O)Nc5ccc(F)cc5)CC4)cc3F)ccnc2cc1OCCCN1CCNCC1 [Example 332, N-[3-fluoro-4-({6-(methyloxy)-7-[(3-piperazin-1-ylpropyl)oxy]quinolin-4-yl}oxy)phenyl]-N′-(4-fluorophenyl)cyclopropane-1,1-dicarboxamide]",< 0.05,< 0.05,< 0.05,< 0.05,< 0.05
"COc1cc2c(Oc3ccc(NC(=O)C4(C(=O)Nc5ccc(F)cc5)CC4)cc3F)ccnc2cc1OCCCN1CCN(C)CC1 [Example 333, N-{3-fluoro-4-[(6-(methyloxy)-7-{[3-(4-methylpiperazin-1-yl)propyl]oxy}quinolin-4-yl)oxy]phenyl}-N′-(4-fluorophenyl)cyclopropane-1,1-dicarboxamide]",< 0.05,< 0.05,< 0.05,< 0.05,< 0.05
"COc1cc2c(Oc3ccc(NC(=O)C4(C(=O)Nc5ccc(F)cc5)CC4)cc3F)ccnc2cc1OCC1CCN(C)CC1 [Example 334, N-{3-fluoro-4-[(6-(methyloxy)-7-{[(1-methylpiperidin-4-yl)methyl]oxy}quinolin-4-yl)oxy]phenyl}-N′-(4-fluorophenyl)cyclopropane-1,1-dicarboxamide]",< 0.05,< 0.05,< 0.05,< 0.05,< 0.05

# Other lines, results leading:
IC50 [1] [µM],IC50 [2] [µM],IC50 [3] [µM],IC50 [4] [µM],IC50 (c-Kit kinase) [µM],SMILES
< 0.05,< 0.05,< 0.05,< 0.05,< 0.05,"COc1cc2c(Oc3ccc(NC(=O)C4(C(=O)Nc5ccc(F)cc5)CC4)cc3F)ncnc2cc1OCCCN1CCOCC1 [Example 315, N-[3-fluoro-4-({6-(methyloxy)-7-[(3-morpholin-4-ylpropyl)oxy]quinazolin-4-yl}oxy)phenyl]-N′-(4-fluorophenyl)cyclopropane-1,1-dicarboxamide]"
< 0.05,< 0.05,< 0.05,< 0.05,< 0.05,"COc1cc2c(Oc3ccc(NC(=O)C4(C(=O)Nc5ccc(F)cc5)CC4)cc3F)ncnc2cc1OCC1CCN(C)CC1 [Example 316, N-{3-fluoro-4-[(6-(methyloxy)-7-{[(1-methylpiperidin-4-yl)methyl]oxy}quinazolin-4-yl)oxy]phenyl}-N′-(4-fluorophenyl)cyclopropane-1,1-dicarboxamide]"
< 0.05,< 0.05,< 0.05,0.5 to 5,< 0.05,"COc1cc2nccc(Oc3ccc(NC(=O)C4(C(=O)Nc5ccc(F)cc5)CC4)c(C)c3)c2cc1OC [Example 317, N-(4-{[6,7-bis(methyloxy)quinolin-4-yl]oxy}-2-methylphenyl)-N′-(4-fluorophenyl)cyclopropane-1,1-dicarboxamide]"
< 0.05,< 0.05,0.05 to 0.5,0.05 to 0.5,0.05 to 0.5,"COc1cc2c(Oc3ccc(NC(=O)C4(C(=O)Nc5ccc(F)cc5)CC4)c(C)n3)ccnc2cc1OCCCN1CCOCC1 [Example 318, N-(4-fluorophenyl)-N′-[2-methyl-6-({6-(methyloxy)-7-[(3-morpholin-4-ylpropyl)oxy]quinolin-4-yl}oxy)pyridin-3-yl]cyclopropane-1,1-dicarboxamide]"
< 0.05,0.5 to 5,0.5 to 5,0.05 to 0.5,0.5 to 5,"COc1cc2nccc(Oc3nc(C)c(NC(=O)C4(C(=O)Nc5ccc(F)cc5)CC4)cc3Cl)c2cc1OC [Example 320, N-(6-{[6,7-bis(methyloxy)quinolin-4-yl]oxy}-5-chloro-2-methylpyridin-3-yl)-N′-(4-fluorophenyl)cyclopropane-1,1-dicarboxamide]"
< 0.05,< 0.05,< 0.05,< 0.05,0.05 to 0.5,"COc1cc2ncnc(Oc3ccc(NC(=O)C4(C(=O)Nc5ccc(F)cc5)CC4)cc3F)c2cc1OCCCN1CCOCC1 [Example 321, N-[3-fluoro-4-({7-(methyloxy)-6-[(3-morpholin-4-ylpropyl)oxy]quinazolin-4-yl}oxy)phenyl]-N′-(4-fluorophenyl)cyclopropane-1,1-dicarboxamide]"
< 0.05,< 0.05,< 0.05,< 0.05,< 0.05,"COc1cc2nccc(Oc3ccc(NC(=O)C4(C(=O)Nc5ccc(F)cc5)CC4)cc3F)c2cc1OCCCN1CCOCC1 [Example 322, N-[3-fluoro-4-({7-(methyloxy)-6-[(3-morpholin-4-ylpropyl)oxy]quinolin-4-yl}oxy)phenyl]-N′-(4-fluorophenyl)cyclopropane-1,1-dicarboxamide]"
< 0.05,< 0.05,< 0.05,< 0.05,0.05 to 0.5,"COc1cc2nccc(Oc3c(F)cc(NC(=O)C4(C(=O)Nc5ccc(F)cc5)CC4)cc3F)c2cc1OC [Example 323, N-(4-{[6,7-bis(methyloxy)quinolin-4-yl]oxy}-3,5-difluorophenyl)-N′-(4-fluorophenyl)cyclopropane-1,1-dicarboxamide]"
< 0.05,< 0.05,< 0.05,< 0.05,< 0.05,"COc1cc2nccc(Oc3cc(F)c(NC(=O)C4(C(=O)Nc5ccc(F)cc5)CC4)cc3F)c2cc1OC [Example 324, N-(4-{[6,7-bis(methyloxy)quinolin-4-yl]oxy}-2,5-difluorophenyl)-N′-(4-fluorophenyl)cyclopropane-1,1-dicarboxamide]"
< 0.05,< 0.05,< 0.05,< 0.05,0.05 to 0.5,"COc1cc2ncnc(Oc3ccc(NC(=O)C4(C(=O)Nc5ccc(F)cc5)CC4)cc3F)c2cc1OCC1CCN(C)CC1 [Example 325, N-{3-fluoro-4-[(7-(methyloxy)-6-{[(1-methylpiperidin-4-yl)methyl]oxy}quinazolin-4-yl)oxy]phenyl}-N′-(4-fluorophenyl)cyclopropane-1,1-dicarboxamide]"
